Assay results: EPA's ToxValDB 9.5

Experiments:
[1] = tested on: Mus musculus
[2] = tested on: Oryctolagus sp.; conditions: reproduction developmental; duration: 13 days; oral; F; New Zealand
[3] = developmental, duration: 5 days, oral, F, Developmental: Delay in vaginal opening at 5 mg/kg and mammary gland growth stimulation a 5 mg/kg and inhibition at 10 mg/kg
[4] = developmental, duration: 7 days, oral, F, Kunming, Developmental: Increased resorbed embryos at 10 mg/kg/day in GD 13 group
[5] = developmental, duration: 17 days, oral, F, C57BL/6, Developmental: Developmental delays in the mammary glands on PNDs 21 (38%) and 61 (25%)
[6] = developmental, duration: 17 days, oral, F, CD1, Developmental: Increased ambulatory activity and decreased methamphetamineinduced activity
[7] = developmental, duration: 17 days, oral, F, Developmental: Decrease in number of successful births
[8] = developmental, duration: 17 days, oral, F, Hepatic: Centrilobular hepatocyte hypertrophy and bile duct hyperplasia at 3 mg/kg/day
[9] = reproduction developmental, duration: 17 days, oral, F, CD1, Hepatic: Increase in severity of chronic inflammation at ?1 mg/kg/day / Ito cell hypertrophy and centrilobular hepatocellular hypertrophy …
[10] = short-term, duration: 4 days, dermal, F, BALB/c, Hepatic: 52% increase in absolute liver weight
[11] = short-term, duration: 4 days, dermal, F, BALB/c, Immunotoxicological: Increased serum IgE following ovalbumin challenge
[12] = short-term, duration: 5 days, oral, F, BALB/c, Body Weight: 13% decrease in body weight gain
[13] = short-term, duration: 5 days, oral, F, Body Weight: 10% decrease in body weight gain
[14] = short-term, duration: 10 days, oral, F, Immunotoxicological: Altered response to sRBC

Question: O=C(O)C(F)(F)C(F)(F)C(F)(F)C(F)(F)C(F)(F)C(F)(F)C(F)(F)F [Perfluorooctanoic acid] was tested. Which LOAEL ([1]; developmental, duration: 5 days, oral, F, BALB/c, Developmental: Delay in vaginal opening at 1 mg/kg and mammary gland growth inhibition at 5 and 10 mg/kg) did it give?
Answer: 1 mg/kg-day

Question: And the LOAEL [1, 3]?
Answer: 5 mg/kg-day

Question: And the NOAEL [1, 3]?
Answer: 1 mg/kg-day

Question: And the LOAEL ([1]; developmental, duration: 5 days, oral, F, Developmental: Mammary gland growth stimulation)?
Answer: 5 mg/kg-day

Question: And the LOAEL [1, 4]?
Answer: 10 mg/kg-day

Question: And the NOAEL [1, 4]?
Answer: 5 mg/kg-day

Question: And the LOAEL ([1]; developmental, duration: 15 days, oral, F, C57BL/6, Developmental: Increased horizontal and ambulatory locomotor activity and decreased resting time in males / decrease in novel object …)?
Answer: 0.1 mg/kg-day

Question: And the LOAEL [1, 5]?
Answer: 0.3 mg/kg-day

Question: And the NOAEL [1, 5]?
Answer: 0.1 mg/kg-day

Question: And the LOAEL ([1]; developmental, duration: 17 days, oral, F, CD1, Developmental: Developmental delays in mammary gland development)?
Answer: 0.01 mg/kg-day

Question: And the LOAEL ([1]; developmental, duration: 17 days, oral, F, CD1, Developmental: Developmental delays in the mammary glands on PNDs 35 (26%) and 56 (30%))?
Answer: 0.01 mg/kg-day

Question: What about the LOAEL ([1]; developmental, duration: 17 days, oral, F, CD1, Developmental: Impaired development of mammary glands in offspring) of the same compound?
Answer: 0.3 mg/kg-day

Question: And the LOAEL [1, 6]?
Answer: 1 mg/kg-day

Question: And the NOAEL [1, 6]?
Answer: 0.3 mg/kg-day

Question: And the LOAEL ([1]; developmental, duration: 17 days, oral, F, Developmental: 31.5% reduced pups per litter on PND 20)?
Answer: 3 mg/kg-day

Question: And the LOAEL [1, 7]?
Answer: 3 mg/kg-day

Question: And the NOAEL [1, 7]?
Answer: 0.1 mg/kg-day

Question: What about the NOAEL ([1]; developmental, duration: 17 days, oral, F, Hepatic: 28% increased liver weight, hepatocellular hypertrophy with increased peroxisomes) of the same compound?
Answer: 3 mg/kg-day

Question: And the LOAEL [1, 8]?
Answer: 3 mg/kg-day

Question: What about the NOAEL [1, 8] of the same compound?
Answer: 1 mg/kg-day

Question: And the LOAEL ([1]; developmental, duration: 18 days, oral, F, ICR, Developmental: 14% increased neonatal mortality, 9.5% reduced fetal body weight)?
Answer: 5 mg/kg-day

Question: And the NOAEL ([1]; developmental, duration: 18 days, oral, F, ICR, Developmental: 14% increased neonatal mortality, 9.5% reduced fetal body weight + Hepatic: 35% increased maternal relative liver weight with…)?
Answer: 1 mg/kg-day

Question: What about the LOAEL ([1]; developmental, duration: 20 days, oral, diet, M/F, C57BL/6, developmental) of the same compound?
Answer: 8.29 mg/L

Question: What about the LOAEL ([1]; developmental, duration: 21 days, oral, F, C57BL/6, Developmental: Altered femur and tibial bone morphology, decreased tibial mineral density) of the same compound?
Answer: 0.3 mg/kg-day

Question: What about the LOAEL ([1]; developmental, duration: 21 days, oral, M/F, Developmental: Altered exploratory behavior in adult offspring (increased in males and decreased in females) / increased global activity in…) of the same compound?
Answer: 0.3 mg/kg-day

Question: What about the LOAEL ([1]; reproduction developmental, duration: 7 days, oral, F, Kunming, Reproductive: Decreases in progesterone levels at ?5 mg/kg in GD 13 group / increased serum estradiol level at 10 mg/kg/day on GD 7 / …) of the same compound?
Answer: 2.5 mg/kg-day

Question: And the LOAEL [1, 9]?
Answer: 1 mg/kg-day

Question: And the NOAEL [1, 9]?
Answer: 0.3 mg/kg-day

Question: What about the NOAEL ([1]; reproduction developmental, duration: 17 days, oral, F, Hepatic: Increased severity of centrilobular hepatocyte hypertrophy at ?0.3 mg/kg/day) of the same compound?
Answer: 1 mg/kg-day

Question: And the LOAEL ([1]; reproduction developmental, duration: 17 days, oral, M/F, CD1, Hepatic: Increased severity of hepatocellular hypertrophy at PND 91 and periportal inflammation on PND 21 at ?0.01 mg/kg/day (incidence was …)?
Answer: 0.01 mg/kg-day

Question: What about the LOAEL ([1]; reproduction developmental, duration: 18 days, oral, F, ICR, Hepatic: 35% increased maternal relative liver weight with hepatocellular hypertrophy at ?1 mg/kg/day / single cell necrosis and mild …) of the same compound?
Answer: 10 mg/kg-day

Question: What about the LOAEL ([1]; short-term, duration: 3 weeks, oral, M, Hepatic: Hepatocellular hypertrophy and degeneration) of the same compound?
Answer: 5 mg/kg-day

Question: What about the NOAEL ([1]; short-term, duration: 4 days, dermal, F, BALB/c) of the same compound?
Answer: 50 mg/kg-day

Question: And the LOAEL [1, 10]?
Answer: 6.25 mg/kg-day

Question: And the NOAEL [1, 10]?
Answer: 2.5 mg/kg-day

Question: And the LOAEL [1, 11]?
Answer: 18.8 mg/kg-day

Question: What about the NOAEL [1, 11] of the same compound?
Answer: 12.5 mg/kg-day

Question: And the LOAEL [1, 12]?
Answer: 10 mg/kg-day

Question: What about the NOAEL [1, 12] of the same compound?
Answer: 5 mg/kg-day

Question: And the NOAEL ([1]; short-term, duration: 5 days, oral, F, BALB/c, Hepatic: Increases in liver weight and hepatocellular hypertrophy at ?1 mg/kg)?
Answer: 10 mg/kg-day

Question: What about the LOAEL [1, 13] of the same compound?
Answer: 10 mg/kg-day

Question: And the NOAEL [1, 13]?
Answer: 5 mg/kg-day

Question: And the LOAEL ([1]; short-term, duration: 5 days, oral, F, C57BL/6, Reproductive: Increased progesterone levels)?
Answer: 5 mg/kg-day

Question: What about the NOAEL ([1]; short-term, duration: 5 days, oral, F, Hepatic: Increases in liver weight and hepatocellular hypertrophy at ?1 mg/kg) of the same compound?
Answer: 10 mg/kg-day

Question: And the LOAEL ([1]; short-term, duration: 7 days, oral, F, BALB/c, Body Weight: 36% decrease in body weight gain + Immunotoxicological: Inhibition of T-and B-lymphocyte proliferation in response to sRBC / …)?
Answer: 20 mg/kg-day

Question: What about the NOAEL ([1]; short-term, duration: 7 days, oral, F, BALB/c, Hepatic: 32% increase in relative liver weight) of the same compound?
Answer: 20 mg/kg-day

Question: And the LOAEL ([1]; short-term, duration: 7 days, oral, M, Body Weight: 14% decreased mean body weight + Immunotoxicological: 40% reduction in spleen weight and 79% reduction in thymus weight)?
Answer: 33 mg/kg-day

Question: What about the LOAEL ([1]; short-term, duration: 7 days, oral, M, Body Weight: >10% reduced final body weight) of the same compound?
Answer: 24 mg/kg-day

Question: What about the NOAEL ([1]; short-term, duration: 7 days, oral, M, Hepatic: 2-fold increase in absolute liver weight) of the same compound?
Answer: 24 mg/kg-day

Question: And the NOAEL ([1]; short-term, duration: 7 days, oral, M, Hepatic: 86% increase in absolute liver weight)?
Answer: 33 mg/kg-day

Question: What about the NOAEL ([1]; short-term, duration: 7 days, oral, M, Hepatic: Hepatocellular hypertrophy, steatosis, and increased hepatic triglyceride levels) of the same compound?
Answer: 10 mg/kg-day

Question: What about the LOAEL ([1]; short-term, duration: 7 days, oral, M, Immunotoxicological: Decreased humoral response to immunization with horse red blood cells) of the same compound?
Answer: 24 mg/kg-day

Question: And the LOAEL [1, 14]?
Answer: 15 mg/kg-day

Question: What about the NOAEL [1, 14] of the same compound?
Answer: 7.5 mg/kg-day

Question: And the LOAEL ([1]; short-term, duration: 10 days, oral, M, Body Weight: 17% decrease in final body weight)?
Answer: 30 mg/kg-day

Question: What about the LOAEL ([1]; short-term, duration: 10 days, oral, M, Body Weight: 25% body weight loss after 5 days of treatment) of the same compound?
Answer: 78 mg/kg-day

Question: And the LOAEL ([1]; short-term, duration: 10 days, oral, M, Body Weight: 25% body weight loss after 10 days of treatment)?
Answer: 78 mg/kg-day

Question: And the NOAEL ([1]; short-term, duration: 10 days, oral, M, C57BL/6, Hepatic: 68% increase in liver weight, hepatocellular hypertrophy, and decreased serum cholesterol levels)?
Answer: 2 mg/kg-day

Question: What about the NOAEL ([1]; short-term, duration: 10 days, oral, M, Hepatic: 35% increase in absolute liver weight at ?1 mg/kg/day) of the same compound?
Answer: 1 mg/kg-day

Question: What about the NOAEL ([1]; short-term, duration: 10 days, oral, M, Hepatic: 74% increase in absolute liver weight at ?78 mg/kg/day) of the same compound?
Answer: 390 mg/kg-day

Question: And the NOAEL ([1]; short-term, duration: 10 days, oral, M, Hepatic: 74% increase in absolute liver weight in 5 days at ?78 mg/kg/day)?
Answer: 390 mg/kg-day

Question: What about the NOAEL ([1]; short-term, duration: 10 days, oral, M, Hepatic: >90% increase in absolute and relative liver weight) of the same compound?
Answer: 30 mg/kg-day

Question: What about the LOAEL ([1]; short-term, duration: 10 days, oral, M, Immunotoxicological: 40-50% decrease in spleen and thymus weights) of the same compound?
Answer: 11.5 mg/kg-day

Question: And the LOAEL ([1]; short-term, duration: 10 days, oral, M, Immunotoxicological: 86% reduction in absolute thymus weight / 30% reduction in absolute spleen weight)?
Answer: 30 mg/kg-day

Question: And the NOAEL ([1]; short-term, duration: 15 days, oral, F)?
Answer: 7.5 mg/kg-day

Question: And the LOAEL ([1]; short-term, duration: 15 days, oral, F, Body Weight: 14-20% decrease in body weight in wild-type mice)?
Answer: 30 mg/kg-day

Question: What about the LOAEL ([1]; short-term, duration: 21 days, oral, M, ICR, Immunotoxicological: Marked hyperplasia in spleen white pulp and thymic atrophy) of the same compound?
Answer: 47.2 mg/kg-day

Question: What about the NOAEL ([1]; subchronic, duration: 6 weeks, oral, M/F, BALB/c, Hepatic: 54-65% increase in relative liver weight / 20% increase in plasma cholesterol in males) of the same compound?
Answer: 0.55 mg/kg-day

Question: What about the NOAEL ([1]; subchronic, duration: 6 weeks, oral, M/F, C57BL/6, Hepatic: 66-67% increase in relative liver weight in males / increased plasma cholesterol levels in males (35%) and females (70%)) of the same compound?
Answer: 0.55 mg/kg-day

Question: And the NOAEL [2]?
Answer: 50 mg/kg-day
